Data published in patent US11040053B2, “Compositions and methods for activating “stimulator of interferon gene”13 dependent signalling” (CHINOOK THERAPEUTICS, INC., priority 2015, dated 2021).

Key:
[1] = molecular target: T1, HAQ allele hSTING (Homo sapiens, UniProt Q86WV6, G230A/H232R/R293Q); test: Differential scanning fluorometry (DSF) binding to purified hSTING HAQ allele; settings: for hSTING Tm Shift HAQ: DSF, 1 mg/ml STING AA140-379, ligand 1 mM
T1 construct: DNA encoding amino acids 140-379 (amino acid numbering corresponding to Swiss Prot Q86WV6); 6xHIS (N, cleaved yes); SUMO (N, cleaved yes); made in house; host or cells: Rosetta2 (DE3) E. coli
T1 sequence (Q86WV6 140-379 G230A/H232R/R293Q limits assumed): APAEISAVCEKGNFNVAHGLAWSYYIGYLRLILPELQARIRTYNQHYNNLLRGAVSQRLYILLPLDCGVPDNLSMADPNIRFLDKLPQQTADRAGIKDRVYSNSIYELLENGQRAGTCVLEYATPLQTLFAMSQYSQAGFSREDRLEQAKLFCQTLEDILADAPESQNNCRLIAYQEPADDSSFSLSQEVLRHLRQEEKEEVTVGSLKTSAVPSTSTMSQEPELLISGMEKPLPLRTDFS
Procedure: (§1) Cells were grown in lysogeny broth at 37° C. until a […] absorbance of 0.6 was reached. […] Cell pellets were re-suspended on ice in a buffer containing 50 mM Tris hydrochloride (Tris-HCl) pH 7.5, 500 mM sodium chloride (NaCl), 20 mM imidazole, 10% glycerol, 1 mM tris(2-carboxyethyl)phosphine hydrochloride (TCEP) and protease inhibitor tablet (Pierce) (Buffer A). Cells were lysed using an S-450D sonifier (Emmerson industrial) on ice. […] Protein was aliquoted, flash frozen in liquid nitrogen and stored at −80° C. until use.
(§2) The protein is heated in the presence of a dye that binds to and fluoresces in hydrophobic environments. The protein is thermally denatured by heating resulting in increased dye binding to the unfolded protein and fluorescence. The temperature midpoint (Tm) of a proteins denaturation is established by calculating the half maximal value of the denaturation curve. The temperature midpoint of the protein in the presence of a ligand is directly related to the affinity of the ligand for the protein and therefore its ability to stabilize the protein at higher temperatures.
(§3) Samples were placed in hard shell PCR plate (Bio-Rad). The fluorescence as a function of temperature was recorded in a CFX 96 real time PCR machine (Bio-Rad) reading on the HEX channel, excitation 450-490, emission 560-580 nm. The temperature gradient was from 15-80° C. ramping 0.5° C. per 15 seconds and recording every 0.5° C. After subtraction of the background signal from a sample lacking protein and ligand. The midpoint temperature (Tm) was calculated by fitting the curves of the fluorescence as a function of temperature to a Boltzmann sigmoidal function (Graph Pad Prism).

[2] = molecular target: T2, hSTING HAQ allele (Homo sapiens, UniProt Q86WV6, G230A/H232R/R293Q/R71H); test: IRF-3 inducible secreted luciferase reporter in THP1-Dual cells without digitonin; type: cell-based; settings: for EC50: without digitonin in THP1 cells (HAQ allele); for activity relative to OH reference compound, in words: Table 5 comment, THP1 cells without digitonin
T2 construct: a human monocyte cell line containing the hSTING HAQ allele; host or cells: THP1-Dual cells
T2 sequence (Q86WV6 whole entry R71H/G230A/H232R/R293Q): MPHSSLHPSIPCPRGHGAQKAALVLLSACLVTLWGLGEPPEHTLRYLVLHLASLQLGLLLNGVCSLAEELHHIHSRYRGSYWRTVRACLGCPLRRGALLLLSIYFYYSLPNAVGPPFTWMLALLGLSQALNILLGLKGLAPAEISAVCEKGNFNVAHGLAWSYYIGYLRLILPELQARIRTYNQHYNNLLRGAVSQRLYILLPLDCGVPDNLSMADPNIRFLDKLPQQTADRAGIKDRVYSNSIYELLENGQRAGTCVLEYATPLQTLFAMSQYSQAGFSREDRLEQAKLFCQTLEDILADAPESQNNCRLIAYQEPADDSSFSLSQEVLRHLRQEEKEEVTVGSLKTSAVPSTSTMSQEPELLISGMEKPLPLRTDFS
Procedure: After 30 minutes, cells were washed and fresh RPMI media containing 10% FBS was added, and cells were incubated at 37° C. with 5% CO2 Cell culture supernatants from each sample were collected after overnight incubation, and 10 μL of the cell culture supernatants was added to 50 μL QUANTI-Luc reagent (Invivogen). Type I interferon activation was determined by measuring secreted luciferase levels on a SpectraMax M3 spectrophotometer (Molecular Devices). The EC50 value was determined from the dose-response curve for the 10 concentrations from the serial dilution of the reference compounds and compounds of the invention tested in this assay as listed in Table 5.

[3] = molecular target: hSTING(WT) (Homo sapiens, UniProt Q86WV6, H232R); test: Differential scanning fluorometry (DSF) binding to purified hSTING WT; set-up: DNA encoding amino acids 140-379 (amino acid numbering corresponding to Swiss Prot Q86WV6); 6xHIS (N, cleaved yes); SUMO (N, cleaved yes); made in house; host or cells: Rosetta2 (DE3) E. coli; settings: for hSTING Tm Shift WT: DSF, 1 mg/ml STING AA140-379, ligand 1 mM
hSTING(WT), sequence (Q86WV6 140-379 H232R): as the sequence (Q86WV6 140-379 G230A/H232R/R293Q limits assumed) above, with A91G, Q154R counted along it
Procedure: as §1, §2, §3

[4] = molecular target: hSTING(REF) (Homo sapiens, UniProt Q86WV6); test: Differential scanning fluorometry (DSF) binding to purified hSTING REF allele; set-up: DNA encoding amino acids 140-379 (amino acid numbering corresponding to Swiss Prot Q86WV6); 6xHIS (N, cleaved yes); SUMO (N, cleaved yes); made in house; host or cells: Rosetta2 (DE3) E. coli; settings: for hSTING Tm Shift REF: DSF, 1 mg/ml STING AA140-379, ligand 1 mM; for binding relative to OH reference compound, in words: Table 4 comment, REF allele hSTING
hSTING(REF), sequence (Q86WV6 140-379): as the sequence (Q86WV6 140-379 G230A/H232R/R293Q limits assumed) above, with A91G, R93H, Q154R counted along it
Procedure: as §1, §2, §3

Row | SMILES | hSTING Tm Shift HAQ [1] [°C] | EC50 [2] [µM] | hSTING Tm Shift WT [3] [°C] | hSTING Tm Shift REF [4] [°C] | binding relative to OH reference compound, in words [4] | activity relative to OH reference compound, in words [2] | binding relative to OH reference compound, in words ([1]; Table 4 comment, HAQ allele hSTING) | binding relative to OH reference compound, in words ([3]; Table 4 comment, wild type hSTING)
1 | Nc1ncnc2c1ncn2[C@@H]1O[C@@H]2CO[P@@](=O)(S)O[C@H]3[C@H](F)[C@H](n4cnc5c(N)ncnc54)O[C@@H]3CO[P@](=O)(S)O[C@H]2[C@@H]1F [Compound 7a, (2R,3 S,3aR,5R,7aR,9R,10S,10aR,12S,14aR)-2,9-bis(6-amino-9H-purin-9-yl)-3,10-difluoro-5,12-dimercaptooctahydro-2H,7H-difuro [3,2-d:3′,2′-j][1,3,7,9]tetraoxa[2,8]diphosphacyclododecine 5,12-dioxide] | 3.1 | > 150 | 0.1 | 0 |  |  |  | 
2 | CC(C)C(=O)Nc1nc2c(ncn2[C@@H]2O[C@@H]3CO[P@@](=O)(S)O[C@H]4[C@@H](F)[C@H](n5cnc6c(NC(=O)c7ccccc7)ncnc65)O[C@@H]4CO[P@@](=O)(S)O[C@H]3[C@H]2F)c(=O)[nH]1 [Compound 25, N-(9-((2R,3R,3aR,5R,7aR,9R,10R,10aR,12R,14aR)-3,10-difluoro-9-(2-isobutyramido-6-oxo-1,6-dihydro-9H-purin-9-yl)-5,12-dimercapto-5,12-dioxidooctahydro-2H,7H-difuro[3,2-d:3′,2′-j][1,3,7,9]tetraoxa[2,8]diphosphacyclododecin-2-yl)-9H-purin-6-yl)benzamide] | 14.7 | 78 | 10.6 | 8.6 | improved binding |  |  | 
3 | Nc1nc2c(ncn2[C@@H]2O[C@@H]3COP(=O)(O)O[C@H]4[C@@H](O)[C@H](n5cnc6c(=O)[nH]c(N)nc65)O[C@@H]4COP(=O)(O)O[C@H]3[C@H]2O)c(=O)[nH]1 [3'3'-(G)(G), cyclic-[G(3′,5′)p-G(3′,5′)p], reference compound] | 9.97 |  | 6.1 | 6.1 |  |  |  | 
4 | CC(C)C(=O)Nc1nc2c(ncn2[C@@H]2O[C@@H]3CO[P@@](=O)(S)O[C@H]4[C@@H](F)[C@H](n5cnc6c(N)ncnc65)O[C@@H]4CO[P@@](=O)(S)O[C@H]3[C@H]2F)c(=O)[nH]1 [Compound 26, N-(9-((2R,3R,3aR,5R,7aR,9R,10R,10aR,12R,14aR)-9-(6-amino-9H-purin-9-yl)-3,10-difluoro-5,12-dimercapto-5,12-dioxidooctahydro-2H,7H-difuro[3,2-d:3′,2′-j][1,3,7,9]tetraoxa[2,8]diphosphacyclododecin-2-yl)-6-oxo-6,9-dihydro-1H-purin-2-yl)isobutyramide] | 18.4 | 23 | 13.3 | 10.5 | improved binding | improved activity |  | 
5 | CC(C)C(=O)Nc1nc2c(ncn2[C@@H]2O[C@@H]3CO[P@](=O)(S)O[C@H]4[C@@H](F)[C@H](n5cnc6c(NC(=O)c7ccccc7)ncnc65)O[C@@H]4CO[P@@](=O)(S)O[C@H]3[C@H]2F)c(=O)[nH]1 [Compound 25a, N-(9-((2R,3R,3aR,5S,7aR,9R,10R,10aR,12R,14aR)-3,10-difluoro-9-(2-isobutyramido-6-oxo-1,6-dihydro-9H-purin-9-yl)-5,12-dimercapto-5,12-dioxidooctahydro-2H,7H-difuro[3,2-d:3′,2′-j][1,3,7,9]tetraoxa[2,8]diphosphacyclododecin-2-yl)-9H-purin-6-yl)benzamide] | 8.9 | > 150 | 6.8 | 5.4 |  |  |  | 
6 | Nc1nc2c(ncn2[C@@H]2O[C@@H]3COP(=O)(O)O[C@H]4[C@@H](F)[C@H](n5cnc6c(N)ncnc65)O[C@@H]4COP(=O)(O)O[C@H]3[C@H]2F)c(=O)[nH]1 [Compound 30, 2-amino-9-((2R,3R,3aR,7aR,9R,10R,10aR,14aR)-9-(6-amino-9H-purin-9-yl)-3,10-difluoro-5,12-dihydroxy-5,12-dioxidooctahydro-2H,7H-difuro[3,2-d:3′,2′-j][1,3,7,9]tetraoxa[2,8]diphosphacyclododecin-2-yl)-1,9-dihydro-6H-purin-6-one] | 27.7 | 10 | 14.3 | 7.8 |  |  |  | 
7 | Nc1nc2c(ncn2[C@@H]2O[C@@H]3CO[P@@](=O)(S)O[C@H]4[C@@H](O)[C@H](n5cnc6c(=O)[nH]c(N)nc65)O[C@@H]4CO[P@@](=O)(S)O[C@H]3[C@H]2O)c(=O)[nH]1 [3'3'-RR-(G)(G), dithio-(Rp,Rp)-cyclic-[G(3′,5′)p-G(3′,5′)p], reference compound] | 15.3 | 75 | 9.5 | 10.3 |  |  |  | 
8 | Nc1nc2c(ncn2[C@@H]2O[C@@H]3CO[P@@](=O)(S)O[C@H]4[C@@H](F)[C@H](n5cnc6c(=O)[nH]c(N)nc65)O[C@@H]4CO[P@@](=O)(S)O[C@H]3[C@H]2F)c(=O)[nH]1 [Compound 17, 9,9′-((2R,3R,3aR,5R,7aR,9R,10R,10aR,12R,14aR)-3,10-difluoro-5,12-dimercapto-5,12-dioxidooctahydro-2H,7H-difuro [3,2-d:3′,2′-j][1,3,7,9]tetraoxa[2,8]diphosphacyclododecine-2,9-diyl)bis(2-amino-1,9-dihydro-6H-purin-6-one)] | 22.6 | 8 | 12.6 | 11.4 | improved binding | improved activity | improved binding | improved binding
9 | Nc1nc2c(ncn2[C@@H]2O[C@@H]3CO[P@@](=O)(S)O[C@H]4[C@@H](O)[C@H](n5cnc6c(N)ncnc65)O[C@@H]4CO[P@@](=O)(S)O[C@H]3[C@H]2O)c(=O)[nH]1 [3'3'-RR-(G)(A), reference compound] | 21.0 | 28 | 11.1 | 7.2 |  |  |  | 
10 | Nc1nc2c(ncn2[C@@H]2O[C@@H]3CO[P@@](=O)(S)O[C@H]4[C@@H](F)[C@H](n5cnc6c(=O)[nH]c(N)nc65)O[C@@H]4CO[P@](=O)(S)O[C@H]3[C@H]2F)c(=O)[nH]1 [Compound 17a, 9,9′-((2R,3R,3aR,5R,7aR,9R,10R,10aR,12S,14aR)-3,10-difluoro-5,12-dimercapto-5,12-dioxidooctahydro-2H,7H-difuro [3,2-d:3′,2′-j][1,3,7,9]tetraoxa[2,8]diphosphacyclododecine-2,9-diyl)bis(2-amino-1,9-dihydro-6H-purin-6-one)] |  | > 150 |  |  |  |  |  | 
